# Reference: patent publication US12220415B2, “WEE1 kinase inhibitors and methods of treating cancer using the same” (The Regents of the University of Colorado, A Body Corporate, priority 2018, dated 2025)
# Read-outs that look alike come from different tables or passages of the source.
# Assays:
# [1] = system: Daoy cells; assay: MTS cell viability assay in Daoy cells; format: cell-based, human; details: for activity at 0.6 µM: at 600 nM; for inhibition at 0.6 µM: 72 hr, @ 600 nM, read-out: percent cell inhibition, DAOY; for EC50: read-out: EC50 cellular metabolic viability, Daoy
# Protocol: (§1) FIG. 1A is a dose-response study for ONS-76 cells treated with a concentration range of WEE1 inhibitors for 72 hours in an MTS assay. […] FIG. 1B is a dose-response study for Daoy cells treated with a concentration range of WEE1 inhibitors for 72 hours in an MTS assay.
# (§2) To evaluate the effect of the WEE1 kinase inhibitors, Daoy cells and ONS-76 cells (human primary medulloblastoma cell lines) were treated with test compounds and cell growth was by MTS assay (FIGS. 1A and 1B). […] Cells were incubated for 72 hr with 50 μL of each diluted drug solution. Cell viability was measured by 2 hr incubation with 30 μL CellTiter 96® AQueous One Cell Proliferation reagent (Promega) and formazan concentration assessed through colorimetric analysis using a BioTek Synergy H1 plate reader (Absorption=490 nm).
# [2] = system: ONS-76 cells; assay: MTS cell viability assay in ONS-76 cells; format: cell-based; details: Homo sapiens; for EC50: read-out: EC50 cellular metabolic viability, ONS-76; for IC50: read-out: Mean IC50, ONS-76; for inhibition at 1.16 µM: @ 1160 nM, read-out: percent cell inhibition, ONS-76
# Protocol: as §1, §2
# [3] = system: pCDK1 (Tyr15) in Daoy cell lysates; assay: pCDK1 (Tyr15) ELISA in Daoy cell lysates; format: cell-based, human; details: 24 hours, single 220 nM dose
# Protocol: WEE1 inactivates CDC2 through selective phosphorylation of the Tyr15 residue of cyclin-dependent kinase 1 (CDK1) stabilizing the CDC2-cyclin B complex. Therefore, inhibition of WEE1 kinase activity will prevent the phosphorylation of its substrate CDK1 at Tyr15. […] Following drug incubation, the media was aspirated from cells before cells were trypsinized and resuspended in TES/SB buffer containing protease inhibitors. Cells were lysed on ice through sonication, and cell lysates were diluted with ELISA Pathscan® sample diluent to a final volume of 100 μL and protein concentration of 0.05 mg/ml prior to use. The relative concentration of p-CDK1 Tyr15 was determined using an enzyme-linked immunosorbent assay according to recommended protocol (Cell Signaling, ELISA Pathscan® phosphor-Cdc2 (Tyr15)).
# [4] = target: recombinant WEE1 kinase (Homo sapiens (Human), UniProt P30291); assay: LanthaScreen Eu TR-FRET kinase binding assay for WEE1 kinase inhibitory activity; details: Kinase Tracer 178, 1 hour at room temperature
# Chain of recombinant WEE1 kinase (P30291 whole entry): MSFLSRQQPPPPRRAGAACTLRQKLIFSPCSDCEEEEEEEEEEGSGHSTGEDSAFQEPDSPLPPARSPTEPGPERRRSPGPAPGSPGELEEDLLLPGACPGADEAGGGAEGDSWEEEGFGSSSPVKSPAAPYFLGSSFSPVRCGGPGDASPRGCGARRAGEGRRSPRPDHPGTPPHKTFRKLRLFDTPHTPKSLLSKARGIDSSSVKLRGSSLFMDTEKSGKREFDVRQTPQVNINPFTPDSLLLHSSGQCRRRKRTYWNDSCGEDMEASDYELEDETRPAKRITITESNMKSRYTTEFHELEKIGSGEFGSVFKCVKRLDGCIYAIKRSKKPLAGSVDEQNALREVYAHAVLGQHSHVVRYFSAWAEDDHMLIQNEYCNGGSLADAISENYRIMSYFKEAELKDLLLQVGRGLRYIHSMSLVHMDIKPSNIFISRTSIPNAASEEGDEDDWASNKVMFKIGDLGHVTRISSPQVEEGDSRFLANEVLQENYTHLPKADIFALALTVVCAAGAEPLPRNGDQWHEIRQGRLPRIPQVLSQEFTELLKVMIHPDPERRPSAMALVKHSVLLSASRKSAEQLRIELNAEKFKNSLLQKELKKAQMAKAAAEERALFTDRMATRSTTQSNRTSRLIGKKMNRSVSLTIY
# Protocol: A LanthaScreen™ kinase activity assay was conducted to assess WEE1 kinase inhibitory activity for compounds of this disclosure. […] All reagents were prepared as solutions in 1× kinase buffer A (Invitrogen) at 3× final desired concentration. […] Inhibitors were assayed in the final concentration range of 0.04 nM to 10 μM.
# [5] = system: murine AML-expressing MLL-ENL, FLT3-ITD, and luciferase; assay: Murine AML model, disease progression by luciferase expression; format: in vivo; details: mice with AML, cytarabine alone
# Protocol: In a second toxicity study, mice without leukemia were treated with cytarabine and/or a WEE1 inhibitor for 5 of 7 days for 3 consecutive weeks. […] The inventors then used an aggressive model of murine AML-expressing MLL-ENL, FLT3-ITD, and luciferase, to determine whether WEE1 inhibition would enhance the anti-leukemia effects of cytarabine.
# [6] = system: medulloblastoma cells; details: Mol Cancer. 2014, 13:72, cited from earlier work
# [7] = Homo sapiens, Daoy cells, 72 hours, MTS assay
# [8] = Homo sapiens, Daoy cells, MTS assay
# [9] = ONS-76 cells, 72 hours, MTS assay, n=3, ±=S.D.
smiles,measurement,setting,value
"C=CCn1c(=O)c2cnc(Nc3ccc(OCCN(C)C)cc3)nc2n1-c1cccc(C(C)(C)O)n1 [CM-181, 2-allyl-6-((4-(2-(dimethylamino)ethoxy)phenyl)amino)-1-(6-(2-hydroxypropan-2-yl)pyridin-2-yl)-1,2-dihydro-3H-pyrazolo[3,4-d]pyrimidin-3-one]",activity at 0.6 µM,[1]; [7],81%
same,inhibition at 0.6 µM,[1]; [8],82%
same,EC50,[2]; [9],203 ± 40 nM
same,IC50,"[2]; ONS-76 cells, 72 hr, MTS assay",273 nM
same,pCDK1(Tyr15) level compared to DMSO control,[3],decrease
C=CCn1c(=O)c2cnc(Nc3ccc(OCCN(C)C)cc3)nc2n1-c1cccc(C(C)(C)O)n1 [drawing 21],IC50,[4],7.8 nM
"C=CCn1c(=O)c2cnc(Nc3ccc(N4CCN(C)CC4)cc3)nc2n1-c1cccc(CO)n1 [CM-170, 2-allyl-1-(6-(hydroxymethyl)pyridin-2-yl)-6-((4-(4-methylpiperazin-1-yl)phenyl)amino)-1,2-dihydro-3H-pyrazolo[3,4-d]pyrimidin-3-one]",inhibition at 1.16 µM,"[2]; ONS-76 cells, 72 hr, MTS assay",59%
"C=CCn1c(=O)c2cnc(Nc3cccc(CN(C)C)c3)nc2n1-c1cccc(C(C)(C)O)n1 [KAC-014, 2-allyl-6-((3-((dimethylamino)methyl)phenyl)amino)-1-(6-(2-hydroxypropan-2-yl)pyridin-2-yl)-1,2-dihydro-3H-pyrazolo[3,4-d]pyrimidin-3-one]",inhibition at 1.16 µM,"[2]; ONS-76 cells, 72 hr, MTS assay",40%
"C=CCn1c(=O)c2cnc(Nc3ccc(N4CCN(C)CC4)cc3)nc2n1-c1cccc(C(C)(C)O)c1 [CM-169, 2-allyl-1-(3-(2-hydroxypropan-2-yl)phenyl)-6-((4-(4-methylpiperazin-1-yl)phenyl)amino)-1,2-dihydro-3H-pyrazolo[3,4-d]pyrimidin-3-one]",inhibition at 1.16 µM,"[2]; ONS-76 cells, 72 hr, MTS assay",61%
same,pCDK1(Tyr15) level compared to DMSO control,[3],statistically the same as that for AZD1775
"C=CCn1c(=O)c2cnc(Nc3ccc(CCN(C)C)cc3)nc2n1-c1cccc(C(C)(C)O)n1 [KAC-034, 2-allyl-6-((4-(2-(dimethylamino)ethyl)phenyl)amino)-1-(6-(2-hydroxypropan-2-yl)pyridin-2-yl)-1,2-dihydro-3H-pyrazolo[3,4-d]pyrimidin-3-one]",activity at 0.6 µM,[1]; [7],84%
same,inhibition at 0.6 µM,[1]; [8],83%
same,EC50,[2]; [9],252 ± 9 nM
same,IC50,"[2]; ONS-76 cells, 72 hr, MTS assay",495 nM
same,pCDK1(Tyr15) level compared to DMSO control,[3],decrease
C=CCn1c(=O)c2cnc(Nc3cccc(C(=O)N(C)C)c3)nc2n1-c1cccc(C(C)(C)O)n1,IC50,[4],27.3 nM
COc1ccc(Cn2c(=O)c3cnc(Nc4ccc(N5CCN(C)CC5)cc4)nc3n2-c2cccc(C(C)(C)O)n2)cc1,IC50,[4],89.7 nM
Nc1ccn([C@@H]2O[C@H](CO)[C@@H](O)[C@@H]2O)c(=O)n1 [cytarabine],"leukemia progression, measured by luciferase expression over time",[5],slowed the progression of the leukemia
C=CCn1c(=O)c2cnc(Nc3cccc(C#N)c3)nc2n1-c1cccc(C(C)(C)O)n1,IC50,[4],78.1 nM
C=CCn1c(=O)c2cnc(Nc3ccccc3)nc2n1-c1cccc(C(C)(C)O)n1 [drawing 14],IC50,[4],9.6 nM
C=C(C)c1cccc(-n2c3nc(Nc4ccc(N5CCN(C)CC5)cc4)ncc3c(=O)n2C)n1,IC50,[4],179 nM
C=CCn1c(=O)c2cnc(Nc3ccc(N4CCN(C)CC4)cc3)nc2n1-c1cccc(CO)c1,IC50,[4],10.4 nM
"C=CCn1c(=O)c2cnc(Nc3ccc(N4CCN(C)CC4)cc3)nc2n1-c1cccc(C(C)(C)O)n1 [AZD1775, 2-allyl-1-(6-(2-hydroxypropan-2-yl)pyridin-2-yl)-6-((4-(4-methylpiperazin-1-yl)phenyl)amino)-1,2-dihydro-3H-pyrazolo[3,4-d]pyrimidin-3-one, reference compound]",EC50,"[1]; Homo sapiens, Daoy, 72 h",150 nM
same,IC50,"[1]; Homo sapiens, Daoy, 72 h, read-out: Mean IC50, DAOY",378 nM
same,EC50,"[1]; Daoy cells, 72 hours, MTS assay, n=3, ±=S.D.",179 ± 16 nM
same,EC50,"[2]; ONS-76, 72 h",290 nM
same,IC50,"[2]; ONS-76, 72 h",221 nM
same,pCDK1(Tyr15) level compared to DMSO control,[3],decrease
same,activity in combination with cisplatin,[6]; medulloblastoma cells,synergistic activity
same,single agent effect in medulloblastoma,[6]; single agent,"suppressed cell growth, induced apoptosis, and decreased tumor growth"
C=CCn1c(=O)c2cnc(NCc3ccc(CC)cc3)nc2n1-c1cccc(C(C)(C)O)n1,IC50,[4],13.6 nM
"C=CCn1c(=O)c2cnc(Nc3cccc(N(C)C)c3)nc2n1-c1cccc(C(C)(C)O)n1 [KAC-019, 2-allyl-6-((3-(dimethylamino)phenyl)amino)-1-(6-(2-hydroxypropan-2-yl)pyridin-2-yl)-1,2-dihydro-3H-pyrazolo[3,4-d]pyrimidin-3-one]",inhibition at 1.16 µM,"[2]; ONS-76 cells, 72 hr, MTS assay",33%
"C=CCn1c(=O)c2cnc(Nc3ccccc3)nc2n1-c1cccc(C(C)(C)O)n1 [KAC-017, 2-allyl-1-(6-(2-hydroxypropan-2-yl)pyridin-2-yl)-6-(phenylamino)-1,2-dihydro-3H-pyrazolo[3,4-d]pyrimidin-3-one]",inhibition at 1.16 µM,"[2]; ONS-76 cells, 72 hr, MTS assay",32%
C=CCn1c(=O)c2cnc(Nc3cccc(CN(C)C)c3)nc2n1-c1cccc(C(C)(C)O)n1 [drawing 18],IC50,[4],9.1 nM
C=CCn1c(=O)c2cnc(Nc3ccc(CCN(C)C)cc3)nc2n1-c1cccc(C(C)(C)O)n1 [drawing 20],IC50,[4],1.8 nM
C=CCn1c(=O)c2cnc(N)nc2n1-c1cccc(C(C)(C)O)n1,IC50,[4],17.7 nM
